Measurements published in US9790506B2, “Diagnostic and screening methods for atopic dermatitis” (The Regents of the University of California, priority 2013, dated 2017).
Ends that are not written are not given here.

Tests used:
[1] = system: keratinocytes; experiment: ratiometric Ca^2+ imaging of keratinocytes; type: cell-based, human; conditions: for SLIGRL-evoked Ca^2+ influx / intracellular Ca^2+ response of keratinocytes: SLIGRL 100 μM; for SLIGRL-evoked Ca^2+ influx / tryptase-evoked Ca^2+ influx: 2 mM Ca^2+, 50 μM 2-APB, 50 nM La^3+; for tryptase-evoked Ca^2+ influx / intracellular Ca^2+ response of keratinocytes: tryptase 100 nM; for intracellular Ca^2+ response of keratinocytes: BAM8-22 2 μM
Method: (§1) Physiological Ringer solution: 140 mM NaCl, 5 mM KCl, 10 mM HEPES, 2 mM CaCl2, 2 mM MgCl2, 10 mM D-(+)-glucose, pH 7.4 with NaOH. Images were collected and analyzed using MetaFluor (Molecular Devices).

[2] = system: NFAT; experiment: NFAT translocation to the nucleus in keratinocytes (immunostaining); type: cell-based, human; conditions: for SLIGRL-induced NFAT nuclear translocation in the presence of inhibitor: SLIGRL 100 μM + 2APB 50 μM or CsA 1 μM, 30 min
Method: Histology Histology was carried out as previously described (Gerhold, 2013). Antibodies: rabbit anti-PGP9.5 and rabbit anti-peripherin (Millipore) 1:1000; goat anti-TSLPR and mouse anti-NFATcI (Santa Cruz Biotechnology) 1:100. IL7Rα and TSLPR probes (Panomics) were used for in situ hybridization following the Quantigene protocol (Panomics).
Following a rise in Ca^2+, NFAT is dephosphorylated by the Ca^2+-dependent phosphatase calcineurin and translocates from the cytosol to the nucleus to promote transcription of target genes (Rao et al., 1997).

[3] = system: DRG neurons; experiment: ratiometric Ca^2+ imaging of DRG neurons; type: cell-based, mouse; conditions: for Ca^2+ levels in TSLP-positive cells on subsequent exposure: AITC 200 μM, CAP 1 μM, all TSLP-positive cells; for overlap of the TSLP-sensitive population with the population sensitive to the compound: DRG neurons, FIG. 3D; for prevalence of TSLP-sensitive neurons / TSLP-evoked Ca^2+ signals after pre-treatment: neurons pre-treated with blocker versus vehicle
Method: as §1

[4] = system: mice; experiment: mouse cheek model of itch (scratching behavior after intradermal injection); type: in vivo
Method: Mice and Behavior Mice (20-35 g) were housed in 12 h light-dark cycle at 21° C. […] For AITC behavior, 5 μL 10% AITC in mineral oil was applied to the right hind paw. Behavioral scoring was performed while blind to treatment and genotype. All experiments were performed under the policies and recommendations of the International Association for the Study of Pain and approved by the University of California, Berkeley Animal Care and Use Committee. […]

[5] = system: keratinocytes; experiment: TSLP release from keratinocytes (ELISA); type: cell-based, human; conditions: 24 h treatment, tryptase 100 nM, SLIGRL 100 μM; for TSLP secretion: TG 1 μM, versus vehicle; for TSLP secretion in the absence of external Ca^2+: 0 Ca
Text: TSLP release was normalized to vehicle.

[6] = system: TSLP transcripts; experiment: expression of TSLP transcripts in keratinocytes; type: cell-based, human; conditions: PAR2-evoked SOCE; 3 h treatment with SLIGRL 100 μM versus vehicle
Method: RT-PCR RNA was extracted using RNeasy (Qiagen) and reverse transcription was performed using Superscript III. RT-PCR was carried out using SYBR Green (Invitrogen) on a StepOnePlus ABI machine. Threshold cycles for each transcript (Bogiatzi et al.) were normalized to GAPDH (ACt). Calibrations and normalizations used the 2^−ΔΔCt method where ΔΔCt=[(Ct (target gene)−Ct (reference gene)]−[Ct (calibrator)−Ct (reference gene)]; GAPDH=reference gene; scrambled siRNA=calibrator. Experiments were performed in triplicate.

[7] = system: keratinocytes; experiment: perforated-patch voltage-clamp recordings on keratinocytes; type: cell-based, human; conditions: SLIGRL 100 μM
Method: Electrophysiology Recordings were collected at 5 kHz and filtered at 2 kHz using an Axopatch 200B and PClamp software. Electrode resistances were 2-6 MΩ. Perforated patch internal solution: 140 mM CsCl, 5 mM EGTA, 10 mM HEPES, pH 7.4 with CsOH, 0.24 mg ml^−1 Amphotericin B (Rae et al., 1991). Stimulation protocol: 10 ms step to −80 mV, 150 ms ramp from −80 mV to +80 mV. Current clamp internal solution: 140 mM KCl, 5 mM EGTA and 10 mM HEPES (pH 7.4 with KOH). Series resistance of all cells were <30 MΩ, and liquid junction potentials were <5 mV (no correction).

[8] = system: DRG neuron; experiment: current-clamp recording in DRG neuron; type: cell-based, mouse; conditions: subset of CAP-sensitive DRG neurons
[9] = biological target: T1, MrgprC11 (Mus musculus, UniProt Q8CIP3); experiment: Ca^2+ response in the presence or absence of the mouse BAM8-22 receptor MrgprC11; type: cell-based; conditions: tryptase 3 μM
T1 sequence (Q8CIP3 1-322): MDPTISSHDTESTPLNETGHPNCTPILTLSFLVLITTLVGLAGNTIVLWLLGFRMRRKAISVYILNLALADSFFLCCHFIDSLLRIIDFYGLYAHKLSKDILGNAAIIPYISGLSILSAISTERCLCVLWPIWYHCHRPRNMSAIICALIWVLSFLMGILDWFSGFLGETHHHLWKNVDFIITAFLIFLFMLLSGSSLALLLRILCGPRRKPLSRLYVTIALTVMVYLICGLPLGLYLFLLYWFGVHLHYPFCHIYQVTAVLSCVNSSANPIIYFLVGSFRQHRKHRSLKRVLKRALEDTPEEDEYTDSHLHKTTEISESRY
Method: FIG. 15. […] MrgprX1 was amplified from DRG, but not keratinocytes. MrgprX1 and GAPDH were amplified from RT-treated tissue but not from “no RT” controls. (B) Representative response to BAM8-22 (BAM, 2 μM) in human keratinocytes. (C) Representative response to tryptase (TRY, 3 μM) and BAM8-22 (BAM, 2 μM) in the presence or absence of the mouse BAM8-22 receptor, MrgprC11. (D) Left: representative traces showing a neuron that is sensitive to BAM8-22 (BAM) but not tryptase (TRY, blue), and a neuron that is sensitive to tryptase but not BAM8-22 (black). Right: quantification of the prevalence of tryptase-responsive (TRY, black), BAM8-22-responsive (blue, BAM), and tryptase- and BAM8-22-responsive neurons in mouse dorsal root ganglia. n≧500 cells. Data are represented as mean+/−SEM

For `NCCOB(c1ccccc1)c1ccccc1` [2-APB, 2-Aminoethoxydiphenyl borate], the “SLIGRL-evoked Ca^2+ influx” value [1] was “significantly attenuated”, the “tryptase-evoked Ca^2+ influx” value [1] was “significantly attenuated” and the “SLIGRL-induced NFAT nuclear translocation in the presence of inhibitor” value [2] was “attenuated”. For the same compound, the “SLIGRL-induced NFAT nuclear translocation in the presence of inhibitor” value ([2]; listed as 2APB) was “prevented”.

In the case of `[La+3]` [La^3+, lanthanum], the “SLIGRL-evoked Ca^2+ influx” value [1] is reported as “significantly attenuated” and the “tryptase-evoked Ca^2+ influx” value [1] is reported as “significantly attenuated”.

For `C=CCN=C=S` [AITC, allyl isothiocyanate], the “Ca^2+ levels in TSLP-positive cells on subsequent exposure” value [3] was “further increased”.

`NCCc1c[nH]cn1` [histamine] was tested, and the “overlap of the TSLP-sensitive population with the population sensitive to the compound” value (“overlap of the TSLP-sensitive population” for short) [3] was 6%.

For “VGRPEWWMDYQKRYG [BAM8-22, MrgprX1-specific ligand, endogenous pruritogen]”, the “overlap of the TSLP-sensitive population” value [3] was 0% and the “intracellular Ca^2+ response of keratinocytes” value (“intracellular Ca^2+ response” for short) [1] was “insensitive”.

`C=C(C)[C@]12C[C@@H](C)[C@@]34O[C@](Cc5ccccc5)(O[C@@H]1[C@@H]3C=C(COC(=O)Cc1ccc(O)c(OC)c1)C[C@]1(O)C(=O)C(C)=C[C@@H]41)O2` [RTX, resiniferatoxin] was tested, and the “TSLP-evoked scratching after neuronal ablation” value ([4]; RTX-treated mice compared to control mice, RTX two days prior to pruritogen) was “significantly decreased”.

In the case of “SLIGRL [widely used PAR2 ligand mimetic]”, the “intracellular Ca^2+ response” value [1] is reported as “evoked a rise in intracellular Ca^2+”, the “NFAT translocation to the nucleus” value ([2]; SLIGRL 100 μM for 30 minutes) is reported as “induced robust NFAT translocation” and the TSLP secretion [5] is reported as “robust secretion”. For the same compound, the “TSLP secretion in the absence of external Ca^2+” value [5] was “not observed”, the “expression of TSLP transcripts” value [6] was “robustly increased” and the “reversal potential of SLIGRL-evoked currents” value [7] was “no measurable reversal potentials below +80 mV”. The SLIGRL-evoked currents ([7]; dependent on extracellular Ca^2+, inwardly-rectifying) was “triggered an ORAI1/2-like current”.

In the case of “TSLP: AD cytokine released from keratinocytes; injected as pruritogen, acts on TSLPR-positive sensory neurons”, the “DRG neurons showing robust increases in intracellular Ca^2+” value ([3]; TSLP application (2 ng/mL), wild-type neurons) is reported as 4.1±0.6%, the “source of TSLP-evoked Ca^2+ signal in sensory neurons” value ([3]; absence (0 mM) and presence (2 mM) of extracellular Ca^2+) is reported as “triggers both release of Ca^2+ from intracellular stores, and subsequent Ca^2+ influx” and the “evoked Ca^2+ signaling abolished in IL7Rα-deficient neurons” value ([3]; neurons isolated from IL7Rα-deficient mice) is reported as “abolished”. The “TSLP-evoked Ca^2+ signals in TRPA1-deficient neurons” value ([3]; versus wild type littermates) was “significantly attenuated”, the “TSLP-evoked itch behaviors in strains lacking T and B cells or mast cells” value ([4]; RAG1−/−, NOD SCID, Kit(W-sh) mice, no significant differences to wild type littermates) was “robust itch behaviors” and the “time after injection at which robust itch behaviors were observed” value ([4]; TSLP injection) was at most 5 min. For the same compound, the “wiping (pain behavior)” value ([4]; TSLP injection into the cheek of wild type mice) was “never observed”, the latency to scratch ([4]; TSLP injection into the cheek of wild type mice (2.5 μg/20 μl)) was 4.1 ± 0.3 min and the itch-evoked scratching ([4]; TSLP injection into the cheek of wild type mice, versus vehicle) was “evoked robust scratching”. For the same compound, the “TSLP-evoked scratching in TRPA1-deficient mice” value ([4]; cheek injection 2.5 μg/10 μL) was “abolished”, the “TSLP-evoked scratching in TRPV1-deficient mice” value ([4]; cheek injection 2.5 μg/10 μL) was “normal” and the “TSLP-evoked scratching in IL7Rα-deficient mice” value ([4]; cheek injection, versus wild type) was “significantly attenuated”. For the same compound, the action potential firing [8] was “triggered action potential firing”.

With `COc1ccc2c(c1)CC[C@@H]1[C@@H]2CC[C@]2(C)[C@@H](NCCCCCCN3C(=O)C=CC3=O)CC[C@@H]12` [U73122, 1-[6-[[(17β)-3-Methoxyestra-1,3,5(10)-trien-17-yl]amino]hexyl]-1H-pyrrole-2,5-dione] the “prevalence of TSLP-sensitive neurons / TSLP-evoked Ca^2+ signals after pre-treatment” value [3] was “significantly reduced”, the “TSLP-evoked scratching after intradermal injection of PLC blocker” value ([4]; 30 min preinjection, versus vehicle, scratching quantified for 20 min) was “significantly attenuated” and the “CQ-evoked scratching after intradermal injection of PLC blocker” value ([4]; preinjection, versus vehicle) was “normal”.

With `N.N.N.N.N.N.N.N.N.N.N.N.N.N.[Cl-].[Cl-].[Cl-].[Cl-].[Cl-].[Cl-].[O-2].[O-2].[Ru+3].[Ru+3].[Ru+4]` [ruthenium red] the “neuronal sensitivity to TSLP after TRPV1 and TRPA1 inhibition” value ([3]; 20 μM ruthenium red) was “significantly decreased”.

`C/C=C(/C)C(=O)O[C@H]1C(C)=C2[C@H]([C@@H]1OC(=O)CCCCCCC)[C@@](C)(OC(C)=O)C[C@H](OC(=O)CCC)[C@@]1(O)[C@H]2OC(=O)[C@@]1(C)O` [TG, thapsigargin] was tested, and the TSLP secretion [5] was “significant increase”.

For `CCN(CC)CCCC(C)Nc1ccnc2cc(Cl)ccc12` (stereo not shown) [CQ, chloroquine], the “overlap of the TSLP-sensitive population” value [3] was 6%.

For `COc1cc(CNC(=O)CCCC/C=C/C(C)C)ccc1O` [CAP, capsaicin], the “Ca^2+ levels in TSLP-positive cells on subsequent exposure” value [3] was “further increased”.

With `O=C1OC2(c3ccccc31)c1ccc(O)c(O)c1Oc1c2ccc(O)c1O` [gallein] the “prevalence of TSLP-sensitive neurons / TSLP-evoked Ca^2+ signals after pre-treatment” value [3] was “no effect”.

For tryptase: endogenous PAR2 agonist, the “activation of MrgprC11” value [9] was “does not activate”, the “intracellular Ca^2+ response” value [1] was “evoked a rise in intracellular Ca^2+” and the “tryptase-evoked itch in IL7Rα-deficient mice” value ([4]; cheek 100 μg/20 μL) was “significantly attenuated”. The “tryptase-evoked itch in PAR2-deficient mice” value ([4]; cheek 100 μg/20 μL) was “significantly attenuated”, the tryptase-evoked itch behaviors ([4]; wild type mice, cheek 100 μg/20 μL, scratching quantified for 1 h) was “induced robust itch behaviors” and the TSLP secretion [5] was “robust secretion”. The “TSLP secretion in the absence of external Ca^2+” value [5] was “not observed”.
